This assay has as its target PI3Kγ (Homo sapiens, UniProt P48736). As to the kind of experiment: ADP-Glo luminescent assay, enzymatic activity of PI3K gamma. The class given is biochemical. Conditions: ATP 25 μM; read-out: PI3K gamma (nM) inhibitory activity (IC50). The procedure: The compounds would be tested from 1 or 10 μM, 3-fold dilution for 10 doses, in duplicate.
Compound preparation: Dilute a compound to 100× of the final desired highest inhibitor concentration in reaction by 100% DMSO. Transfer 100 μl of this compound dilution to a well in a 96-well plate and serially dilute it with DMSO for a total of 10 concentrations.
Kinase reaction: Prepare a solution of PI3K in 1× kinase buffer at 2-fold the final concentration of each reagent in the assay. Control wells contain 1× kinase buffer without enzyme. Prepare substrate solution of PIP2 substrate and ATP in 1× kinase reaction buffer at 2-fold of the final concentration. Add concentration substrate solution to each well to the final concentration. Cover the assay plate, shake to mix, and incubate at room temperature for 1 hour. Add 5 μl of ADP-Glo reagent to each well to stop the reaction. […] Add 10 ul Kinase Detection Reagent to each well, shake 1 min, equilibrate for 30 min before reading on a luminescence plate reader.
Data Analysis: Convert RLU values to percent inhibition values as Percent inhibition=(max−sample RLU)/(max−min)*100. “min”—no enzyme control; “max”—DMSO control. Fit the data in XLFit excel add-in version 5.4.0.8 to obtain IC50 values. Y=Bottom+(Top−Bottom)/(1+(IC50/X)^HillSlope).
PI3Kγ, sequence (P48736 whole entry, species assumed): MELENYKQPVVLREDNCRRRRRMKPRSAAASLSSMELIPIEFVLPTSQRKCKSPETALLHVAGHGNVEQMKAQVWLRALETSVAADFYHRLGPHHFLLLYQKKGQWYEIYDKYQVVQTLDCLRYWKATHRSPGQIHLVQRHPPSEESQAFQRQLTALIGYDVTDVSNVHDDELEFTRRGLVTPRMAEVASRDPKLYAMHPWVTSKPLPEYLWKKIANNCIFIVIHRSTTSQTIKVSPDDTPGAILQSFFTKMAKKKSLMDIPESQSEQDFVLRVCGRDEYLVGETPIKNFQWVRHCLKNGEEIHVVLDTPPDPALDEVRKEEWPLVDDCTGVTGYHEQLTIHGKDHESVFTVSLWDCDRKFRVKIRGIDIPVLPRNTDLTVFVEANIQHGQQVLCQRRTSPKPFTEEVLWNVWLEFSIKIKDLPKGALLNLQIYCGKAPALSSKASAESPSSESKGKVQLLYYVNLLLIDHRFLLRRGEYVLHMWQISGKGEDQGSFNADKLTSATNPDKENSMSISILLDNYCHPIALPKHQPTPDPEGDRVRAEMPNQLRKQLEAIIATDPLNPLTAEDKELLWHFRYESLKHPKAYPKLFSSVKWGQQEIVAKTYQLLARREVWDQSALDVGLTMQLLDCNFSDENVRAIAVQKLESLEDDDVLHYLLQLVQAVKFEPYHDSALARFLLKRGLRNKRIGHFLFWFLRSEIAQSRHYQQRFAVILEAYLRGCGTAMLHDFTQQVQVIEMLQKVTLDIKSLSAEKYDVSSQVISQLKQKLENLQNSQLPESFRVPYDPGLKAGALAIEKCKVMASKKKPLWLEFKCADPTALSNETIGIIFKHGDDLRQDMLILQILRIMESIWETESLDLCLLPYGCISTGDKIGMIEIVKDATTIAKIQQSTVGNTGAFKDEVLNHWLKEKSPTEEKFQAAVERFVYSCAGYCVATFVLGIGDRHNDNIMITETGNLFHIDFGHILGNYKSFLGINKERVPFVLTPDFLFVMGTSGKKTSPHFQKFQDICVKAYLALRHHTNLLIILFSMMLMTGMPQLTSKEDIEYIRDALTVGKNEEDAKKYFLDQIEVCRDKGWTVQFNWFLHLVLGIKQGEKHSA
Take `CC(=O)Nc1nc(C(F)F)c(-c2cc3c(c([S@@+](C)[O-])c2)C(=O)N([C@@H](C)C2CC2)C3)s1` (racemic) [Compound 18, N-(5-(2-((S)-1-cyclopropylethyl)-7-(methylsulfinyl)-1-oxoisoindolin-5-yl)-4-(difluoromethyl)thiazol-2-yl)acetamide]: the IC50 (in general, the concentration needed to halve the response being measured) stood at 16 nM.

In the case of `CC(=O)Nc1nc(C)c(-c2cc3c(c(N4CCOCC4)n2)C(=O)N(C(C)C(F)(F)F)C3)s1` (stereo in doubt) [Compound 37, (S)-N-(4-methyl-5-(4-morpholino-3-oxo-2-(1,1,1-trifluoropropan-2-yl)-2,3-dihydro-1H-pyrrolo[3,4-c]pyridin-6-yl)thiazol-2-yl)acetamide], the IC50 is 9 nM.

Consider `Cc1nc(NC(=O)C2CC2)sc1-c1cc2c(c(P(C)(C)=O)c1)C(=O)N([C@@H](C)C1CC1)C2` [Compound 3, (S)-N-(5-(2-(1-cyclopropylethyl)-7-(dimethylphosphoryl)-1-oxoisoindolin-5-yl)-4-methylthiazol-2-yl)cyclopropanecarboxamide], for which the IC50 amounted to 7.7 nM.

Consider `CC(=O)Nc1nc(C)c(-c2ccc3c(n2)CN([C@@H](C)C2CC2)C3=O)s1` [Compound 9, (S)-N-(5-(6-(1-cyclopropylethyl)-5-oxo-6,7-dihydro-5H-pyrrolo[3,4-b]pyridin-2-yl)-4-methylthiazol-2-yl)acetamide], for which the IC50 worked out at 22 nM.

Turning to `CC(=O)Nc1nc(C)c(-c2cc3c(c(C(=O)O)n2)C(=O)N([C@@H](C)C2CC2)C3)s1` [Compound 30, (S)-6-(2-acetamido-4-methylthiazol-5-yl)-2-(1-cyclopropylethyl)-3-oxo-2,3-dihydro-1H-pyrrolo[3,4-c]pyridine-4-carboxylic acid], the 50% inhibitory concentration (IC50) is 56 nM.

As to `CC(=O)Nc1nc(C)c(-c2cc3c(c(C(N)=O)n2)C(=O)N([C@@H](C)C2CC2)C3)s1` [Compound 31, (S)-6-(2-acetamido-4-methylthiazol-5-yl)-2-(1-cyclopropylethyl)-3-oxo-2,3-dihydro-1H-pyrrolo[3,4-c]pyridine-4-carboxamide], the 50% inhibitory concentration (IC50) is 2.3 nM.

Turning to `CC(=O)Nc1nc(C)c(-c2cc3c(c(C(=O)N4CCOCC4)n2)C(=O)N([C@@H](C)C2CC2)C3)s1` [Compound 33, (S)-N-(5-(2-(1-cyclopropylethyl)-4-(morpholine-4-carbonyl)-3-oxo-2,3-dihydro-1H-pyrrolo[3,4-c]pyridin-6-yl)-4-methylthiazol-2-yl)acetamide], the half-inhibitory concentration (IC50) stood at 6.5 nM.

Consider `[2H]C([2H])([2H])Oc1nc(-c2sc(NC(C)=O)nc2C)cc2c1C(=O)N([C@@H](C)C1CC1)C2` [Compound 43, (S)-N-(5-(2-(1-cyclopropylethyl)-4-(methoxy-d3)-3-oxo-2,3-dihydro-1H-pyrrolo[3,4-c]pyridin-6-yl)-4-methylthiazol-2-yl)acetamide], for which the half-maximal inhibitory concentration (IC50) was 2.6 nM.

Take `CC(=O)Nc1nc(C)c(-c2cc3c(c(NC(=O)C4CC4C#N)n2)C(=O)N([C@@H](C)C2CC2)C3)s1` (stereo partly drawn) [Compound 45, N-(6-(2-acetamido-4-methylthiazol-5-yl)-2-((S)-1-cyclopropylethyl)-3-oxo-2,3-dihydro-1H-pyrrolo[3,4-c]pyridin-4-yl)-2-cyanocyclopropane-1-carboxamide]: the concentration for half-maximal inhibition (IC50) is 0.8 nM.

In the case of `CC(=O)Nc1nc(C)c(-c2cc3c(c(N4CCC(O)C4)n2)C(=O)N([C@@H](C)C2CC2)C3)s1` (stereo partly drawn) [Compound 47, N-(5-(2-((S)-1-cyclopropylethyl)-4-(3-hydroxypyrrolidin-1-yl)-3-oxo-2,3-dihydro-1H-pyrrolo[3,4-c]pyridin-6-yl)-4-methylthiazol-2-yl)acetamide], the IC50 amounted to 0.61 nM.

Consider `CC(=O)Nc1nc(C)c(-c2cc3c(c(OC4CCOC4)n2)C(=O)N([C@@H](C)C2CC2)C3)s1` (stereo partly drawn) [Compound 51, N-(5-(2-((S)-1-cyclopropylethyl)-3-oxo-4-((tetrahydrofuran-3-yl)oxy)-2,3-dihydro-1H-pyrrolo[3,4-c]pyridin-6-yl)-4-methylthiazol-2-yl)acetamide], for which the IC50 stood at 0.65 nM.
